Laboratory results as given in patent US6596701B1, “S-adenosyl methionine regulation of metabolic pathways and its use in diagnosis and therapy” (MediQuest Therapeutics, Inc., priority 1995, dated 2003).
Where two headings read alike, the source gives them in different places.

Legend:
[1] = system: gastric mucosal stress ulcers; conditions: polyamine-stimulated healing, Wang et al.; cited from earlier work
SAM concentrations = conditions: Bacchi et al. 1987; cited from earlier work
puncture wounds = assay: Mouse puncture wound model, Experiment 3 (about 6 mm wounds, wound area, varied compositions); format: in vivo; conditions: comparison of Groups A-D, each compound 0.18 mg/ml
Protocol: This study was similar to Experiment 2, with the following changes. 1. […] 2. […] 3. Test or control compositions were applied daily. Compounds in each test composition were varied 4. N=10 mice per group 5. The each compound in the test compositions was present at a concentration of 0.18 mg/ml. [table]

[2] = target: methyl transferase which acts on MBP; conditions: methyl transferase with subunits of 75 and 100 kDa; cited from earlier work
[3] = cited from earlier work
LDHκ = LDHκ activity in HeLa cell extracts with SAM added; format: biochemical, human; conditions: addition of SAM to the assay mixture
AD patients = conditions: Cohen et al. 1988; cited from earlier work
[4] = system: genetically diabetic mice; conditions: Reddi et al. 1988; cited from earlier work
cultured rat hepatocytes = conditions: within 6 hours, cited from earlier work
3T3 cells = conditions: cited from earlier work
[5] = system: RNA polymerase II and synthesis of RNA; conditions: biotin-deficient rats, within 2 hours after injection of biotin; cited from earlier work
RSV-infected cells = conditions: cited from earlier work
tumor [6] = conditions: Briggs 1959; tumor size attained prior to treatment was not reduced; cited from earlier work
injured skin = conditions: compared to injured skin of saline-treated controls, Smith et al. 1989; cited from earlier work
tumor [7] = conditions: mouse model, cited from earlier work
tRNA in tumor cells = conditions: tumor-bearing mice; cited from earlier work

## NCCCC(N)(C(=O)O)C(F)F (racemic) [DL-α-difluoromethylornithine]
[1]
  healing process of gastric mucosal stress ulcers: significantly inhibited
SAM concentrations
  increase SAM concentrations: ≤ 48 fold

## NC1(C(=O)O)CC1 [ACC, 1-aminocyclopropanecarboxylic acid]
Puncture wounds
  synergy in promoting wound healing: act synergistically in promoting wound healing

## Nc1ncnc2c1ncn2[C@@H]1O[C@H](CSCC[C@H](N)C(=O)O)[C@@H](O)[C@H]1O [SAH, S-adenosyl-L-homocysteine]
[2]
  Ki: 1000 nM

## C[S+](CC[C@H](N)C(=O)O)C[C@H]1O[C@@H](n2cnc3c(N)ncnc32)[C@H](O)[C@@H]1O.C[S+](CC[C@H](N)C(=O)O)C[C@H]1O[C@@H](n2cnc3c(N)ncnc32)[C@H](O)[C@@H]1O.O=S(=O)([O-])[O-] (stereo partly drawn) [SAM sulfate]
[3]; 4° C.
  stable for: 6 months

## C[S+](CC[C@H](N)C(=O)O)C[C@H]1O[C@@H](n2cnc3c(N)ncnc32)[C@H](O)[C@@H]1O (stereo partly drawn) [SAM, S-adenosyl-L-methionine]
LDHκ
  increase in activity of LDHκ: 8-10 fold
AD patients
  membrane fluidity: increased of membrane fluidity
  symptoms: no improvement nor worsening of symptoms

## O=C(O)CCCC[C@@H]1SC[C@@H]2NC(=O)N[C@@H]21 [biotin]
Puncture wounds
  synergy in promoting wound healing: act synergistically in promoting wound healing
[4]
  glucose and insulin tolerance: improves glucose and insulin tolerance
Cultured rat hepatocytes; required the presence of insulin
  increase in glucokinase: 4 fold
Cultured rat hepatocytes
  increase in cGMP: 3 fold
3T3 cells; differentiation with biotin
  GAPDH increased: 8 fold
  aldolase increased: 20-30 fold
  glycerophosphate dehydrogenase increased: 2,000 fold
3T3 cells; from 12.7% prior to treatment with biotin
  actin, % of total protein after treatment: 3.2 % of total protein
[5]
  increase in RNA polymerase II: 2 fold
  increase in the synthesis of RNA: 2 fold

## C[S+](CC[C@H](N)C(=O)O)C[C@H]1O[C@@H](n2cnc3c(N)ncnc32)[C@H](O)[C@@H]1O.[Cl-] (stereo partly drawn) [chloride salt of SAM]
[3]; 25° C.
  loss of activity per day: 10 % of activity per day

## NC1(C(=O)O)CCCC1 [cycloleucine]
RSV-infected cells; RSV-infected cells, concentrations used
  inhibition of cellular methylation: 95%
RSV-infected cells; concentrations which inhibit 95% of cellular methylation
  RSV-specific mRNAs found: only the 35S viral mRNA is found

## C[C@@H]1NC(=O)N[C@@H]1CCCCCC(=O)O [desthiobiotin, reference compound]
Tumor [6]
  antitumor effects: further tumor growth was prevented

## NC(=O)c1cccnc1 [nicotinamide]
Injured skin
  capillary density in injured skin: increases the capillary density in injured skin significantly

## Nc1nc2[nH]cc(CN[C@H]3C=C[C@H](O)[C@@H]3O)c2c(=O)[nH]1 [queuine]
Tumor [7]; Katze et al. 1980
  effect on tumor: shrinkage of the tumor
Tumor [7]; Nishimura et al. 1983, cancer of different type
  effect on tumor: no effect

## Nc1nc2c(c(CN[C@H]3C=C[C@H](O)[C@@H]3O)cn2[C@@H]2O[C@H](CO)[C@@H](O)[C@H]2O)c(=O)[nH]1 [queuosine]
tRNA in tumor cells
  conversion of G-tRNA to QtRNA in tumor cells: complete conversion

## avidin: the biotin-binding protein avidin
Tumor [6]
  antitumor effects: further tumor growth was prevented
